From patent US11371099B2, “HEATR1 as a marker for chemoresistance” (MAYO FOUNDATION FOR MEDICAL EDUCATION AND RESEARCH, priority 2015, dated 2022)

How the values were obtained:
[1] = tested on: SU86.86, ASPC-1, and PANC-1 cells; experiment: MTS cell survival assay in pancreatic cancer cells transfected with control or HEATR1 siRNA/shRNA; format: cell-based, human; details: HEATR1 siRNA or shRNA vs control
Experimental: FIG. 1. […] (A) Cells were transfected with indicated siRNA and treated with Gemcitabine. Cell survival was determined. […] (C) SU86.86 cells were transfected with indicated siRNA and treated. Cell survival was determined.
(A) PANC-1 and ASPC-1 cells stably expressing control or HEATR1 shRNA treated with gemcitabine. Cell survival was determined as described in FIG. 1A. The data presented are mean±SD for six independent experiments. […] (B) PANC-1 and ASPC-1 cells were transfected with control or HEATR1 siRNA and then treated with the indicated drugs. Cell survival was determined as described in A. The data presented are mean±SD for six independent experiments.
Human pancreatic cancer cell lines SU86.86, ASPC-1, and PANC-1 were purchased from ATCC in 2014. The identities of these cell lines were confirmed by the medical genome facility at Mayo Clinic Center using short tandem repeat profiling upon receipt. The cell lines were maintained in RPMI 1640 with 10% FBS. HEATR1 cDNA was purchased from Thermo Scientific and full length and mutants were subcloned into pIRES-EGFP. PP2A-Aα, B55α, B56β, Cα were purchased from addgene and subcloned into HA-pcmv and pGex4T-1. HEATR1 siRNA and shRNA were from Dharmacon and Sigma, respectively.
Gemcitabine was from Eli Lilly (Indianapolis, Ind.). Paclitaxel, SN-38, mitomycin c, oxaliplatin and etopside were from Sigma-Aldrich (St. Louis, Mo.). […] Ctrl (Control) or HEATR1 siRNA or shRNA were transfected, and the growth-inhibitory effect was performed as described previously (21). In one embodiment, a MTS assay may be performed by a MTS Cell Proliferation Assay Kit (Colorimetric) (197010); a colorimetric sensitive quantification of viable cells in proliferation and cytotoxicity assays. The assay is based on the reduction of MTS tetrazolium compound by viable cells to generate a colored formazan product that is soluble in cell culture media.

[2] = tested on: Akt phospho-Thr308 and phospho-Ser473; details: in vivo, both sensitive and resistant tumors; cited from earlier work
Akt [3] = details: cited from earlier work
[4] = tested on: Akt phosphorylation at Thr308; experiment: Western blot of Akt phosphorylation after serum starvation and serum addition; format: cell-based, human; details: SU86.86 cells, pretreated 5 nM
Experimental: (A) Intracellular co-localization of HEATR1 and AKT were observed by using confocal microscopy in Su86.86, PANC-1 and ASPC-1 cells. (B) Cell lysates were subjected to immunoprecipitation with control IgG or anti-HEATR1 antibodies. The immunoprecipitates were then blotted with indicated antibodies. (C) Cells were transfected with control or HEATR1 siRNA, and the interaction between Akt and PDK1 was examined. (D) SU86.86 Cells transfected with control or HEATR1 siRNA were serum starved for 16 hours (0.1% serum), pretreated with DMSO or okadaic acid (5 nM) and then serum was added. Whole-cell lysates were harvested at indicated time and western blotting was performed with indicated antibodies.
We prepared cell lysates, performed immunoprecipitation, and immunoblotting as previously described. In brief, cells were lysed with NETN buffer (20 mM Tris-HCl, pH 8.0, 100 mM NaCl, 1 mM EDTA, 0.5% Nonidet P-40) containing 50 mM b-glycerophosphate, 10 mM NaF, and […] each of pepstatin A and aprotinin. Whole cell lysates were pulse-sonicated and obtained by centrifugation. Whole cell lysates were incubated with 2 μg of antibody and protein A or protein G Sepharose beads (Amersham Biosciences) for 2 hr or overnight at 4° C. The immunocomplexes were then washed with NETN buffer for three times and separated by SDS-PAGE. Immunoblotting was performed following standard procedures. […]

Akt [5] = details: cited from earlier work; remark: listed apart in the source
SU86.86 cells = experiment: Apoptosis (cleaved PARP1 western blot) in cells expressing control or HEATR1 shRNA; format: cell-based, human; details: control cells vs HEATR1 shRNA cells; 10 μM, 48 hours
Experimental: (A) SU86.86 cells stably expressing control or HEATR1 shRNA treated with gemcitabine (10 μM). Cell lysate were collect at 48 hours and western blotting was performed with indicated antibodies. (B) Cells stably expressing control or HEATR1 shRNA were seeded in each well (5×10^4/well) and cell numbers were counted every 24 hour. Data are represented as the mean±SD of four independent experiments. We prepared cell lysates, performed immunoprecipitation, and immunoblotting as previously described. In brief, cells were lysed with NETN buffer (20 mM Tris-HCl, pH 8.0, 100 mM NaCl, 1 mM EDTA, 0.5% Nonidet P-40) containing 50 mM b-glycerophosphate, 10 mM NaF, and […] each of pepstatin A and aprotinin. Whole cell lysates were pulse-sonicated and obtained by centrifugation. Whole cell lysates were incubated with 2 μg of antibody and protein A or protein G Sepharose beads (Amersham Biosciences) for 2 hr or overnight at 4° C. The immunocomplexes were then washed with NETN buffer for three times and separated by SDS-PAGE. Immunoblotting was performed following standard procedures. GST fusion proteins were bound to glutathione-Sepharose overnight at 4° C. The beads were washed with PBS four times and incubated with cell lysates for 1 h at 4° C. After washing with NETN for three times, the bound proteins were separated by SDS-PAGE and immunoblotted with indicated antibodies.

PANC-1 xenograft tumors = experiment: Tumor xenograft study, PANC-1 cells stably expressing Ctrl or HEATR1 shRNA; format: in vivo, mouse; details: Gemcitabine 50 mg/kg i.p. every 3 days; HEATR1 shRNA vs Ctrl
Experimental: Xenograft tumors were dissected and tumor weights were measured after mice were sacrificed (C). ANOVA analysis was performed (Mann-Whitney test) +P<0.05, ++P<0.01 (Ctrl vs KD). […] Representative photographs of indicated xenograft tumors were shown in (E). Female athymic nu/nu mice were obtained from the National Cancer Institute. Experiments were performed under the approval of the Institutional Animal Care and Use Committee at Mayo Clinic. PANC-1 cells stably expressing Ctrl and HEATR1 shRNA were injected subcutaneously in mouse flanks (10^6 cells/mouse flank). Tumor volumes were measured every three days. […] After sacrificing the mice, tumors were surgically removed and weighted.

pancreatic tumor = details: dinaciclib combined with MK-2206; cited from earlier work
[6] = patients with advanced solid tumors; cited from earlier work

Which “Cell survival / resistance to drug in cells with HEATR1 knockdown versus control” value [1] does the source give for CC(=O)O[C@H]1C(=O)[C@@]2(C)[C@H]([C@H](OC(=O)c3ccccc3)[C@]3(O)C[C@H](OC(=O)[C@H](O)[C@@H](NC(=O)c4ccccc4)c4ccccc4)C(C)=C1C3(C)C)[C@]1(OC(C)=O)CO[C@@H]1C[C@@H]2O [paclitaxel] here?
The value was “significantly resistant”.

For COc1cc([C@@H]2c3cc4c(cc3[C@@H](O[C@@H]3O[C@@H]5CO[C@@H](C)O[C@H]5[C@H](O)[C@H]3O)[C@H]3COC(=O)[C@H]23)OCO4)cc(OC)c1O [etopside], which “Cell survival / resistance to drug in cells with HEATR1 knockdown versus control” value [1] is on record?
Its value is “significantly resistant”.

What does the source list for CCCCCCCCCCCCc1ccc(S(=O)(=O)Nc2nncs2)cc1 [PHT-427]?
Akt phospho-Thr308 and phospho-Ser473 in tumors [2]: decreased; Akt activity in resistant cancer cells (Akt [3]): increase in Akt activity

For C=C1[C@@H](O)[C@@H]2O[C@]3(CC[C@H](/C=C/[C@@H](C)[C@@H]4CC(C)=C[C@@]5(O[C@H](C[C@@](C)(O)C(=O)O)CC[C@H]5O)O4)O3)CC[C@H]2O[C@@H]1[C@@H](O)C[C@H](C)[C@H]1O[C@@]2(CCCCO2)CC[C@H]1C [okadaic acid], which “Akt phosphorylation at Thr308” value [4] is on record?
The value was “significantly increased”.

Which “Cell survival / resistance to drug in cells with HEATR1 knockdown versus control” value [1] does the source give for CO[C@@]12[C@H](COC(N)=O)C3=C(C(=O)C(C)=C(N)C3=O)N1C[C@@H]1N[C@@H]12 [mitomycin c] here?
Its value is “significantly resistant”.

Which “Cell survival / resistance to drug in cells with HEATR1 knockdown versus control” value [1] does the source give for O=C1[O][Pt]2([NH][C@@H]3CCCC[C@H]3[NH]2)[O]C1=O [oxaliplatin] here?
The value was “significantly resistant”.

For CC[C@@]1(O)C(=O)OCc2c1cc1n(c2=O)Cc2cc3ccccc3nc2-1 [Camptothecin], which “Cell survival / resistance to drug in cells with HEATR1 knockdown versus control” value [1] is on record?
The value was “significantly resistant”.

Which “Phosphorylation of Akt at both Ser-473 and Ser-308” value (Akt [5]) does the source give for S=C=NCc1ccccc1 [BITC, Benzyl isothiocyanate] here?
Its value is “suppresses”.

Which “Cell survival / resistance to drug in cells with HEATR1 knockdown versus control” value [1] does the source give for CCc1c2c(nc3ccc(O)cc13)-c1cc3c(c(=O)n1C2)COC(=O)[C@]3(O)CC [SN-38] here?
The value was “significantly resistant”.

With Nc1ccn([C@@H]2O[C@H](CO)[C@@H](O)C2(F)F)c(=O)n1 [Gemcitabine] as the molecule, how does the “Cell survival / resistance to drug in cells with HEATR1 knockdown versus control” value [1] read?
Its value is “increased resistance”.

What about the “Apoptosis activity induced by drug” value (SU86.86 cells) of the same molecule?
Its value is “stronger apoptosis activity in control cells”.

What about the “Tumor response to drug in xenografts with HEATR1 downregulation” value (PANC-1 xenograft tumors) of the same molecule?
Its value is “resistance to Gemcitabine”.

Which “Pancreatic tumor growth and metastases” value (pancreatic tumor) does the source give for NC1(c2ccc(-c3nc4ccn5c(=O)[nH]nc5c4cc3-c3ccccc3)cc2)CCC1 [MK-2206] here?
The value was “dramatically block”.

And the Tolerability [6]?
The Tolerability was “well tolerated”.
